Values of other authors in patent publication US10875826B2, “Process for the manufacture of SNAC (salcaprozate sodium)” (Emisphere Technologies, Inc., priority 2006, dated 2020).
Counter-ions that a name gives are not always drawn.

solubility in organic solvents (organic solvents): practically insoluble | solubility in water (water): freely soluble
SMILES: CCCCCN(C)CCC(O)(P(=O)(O)O)P(=O)(O)O [Ibandronate sodium, 3-(N-methyl-N-pentyl)-amino-1-hydroxypropane-1,1-diphosphonic acid, monosodium salt, monohydrate]
